Some test systems named below: UACC-62; OVCAR-4; Malme-3M; HT-29; SF-295; HL-60; SR; NCI-H522; SK-MEL-2; UACC-257; SN12C; MCF7; SF-268; HCC 2998; NCI-H23; SK-MEL-5; HCT-15; PC-3; HOP-92; SK-MEL-28.
Experiment in all cases: growth of human tumour cells (NCI), 48 h

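Five compound concentrations were applied to cells in 96-well plates for 48 hours; endpoints were derived by simple linear interpolation of the resulting dose-response curve. GI50: concentration for 50% inhibition of growth.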 Activity calls are given as the source filed them. No stated cut-off is given here; in the data, active = GI50 up to about 1.1 µM and inactive = higher.

As to `O=C(/C=C/c1cc2ccccc2o1)N1CCN(c2ccccn2)CC1`, the GI50 in the experiment with UACC-62 was 86.7 µM (inactive); with OVCAR-4, 49.8 µM (inactive); in the experiment on Malme-3M it was 79.6 µM (inactive); in the experiment on HT-29 it was 68.7 µM (inactive); with SF-295, > 100 µM (inactive); in the experiment with HL-60, 40.7 µM (inactive). Further, the GI50 in the experiment on SR is > 100 µM (inactive); in the experiment on NCI-H522, 28 µM (inactive); with SK-MEL-2, > 100 µM (inactive); in the experiment on UACC-257, > 100 µM (inactive); with SN12C it was > 100 µM (inactive); in the experiment with MCF7, 57.5 µM (inactive). Further, the GI50 in the experiment on SF-268 was > 100 µM (inactive); in the experiment with HCC 2998, > 100 µM (inactive); in the experiment on NCI-H23 it was > 100 µM (inactive); in the experiment with SK-MEL-5, > 100 µM (inactive); in the experiment on HCT-15, 74.6 µM; in the experiment on PC-3 it was 50.4 µM (inactive). Besides, the results for the GI50 in the experiment on HOP-92 and in the experiment with SK-MEL-28 were 60.5 µM (inactive) and 35.9 µM (inactive), respectively.
With `CCCNc1c(Cl)cc(Cl)c2[nH]c3ccccc3c(=O)c12`, the GI50 is 45.5 µM (inactive) in the experiment with UACC-62; > 100 µM (inactive) in the experiment on OVCAR-4; 43.3 µM (inactive) with Malme-3M; 22.5 µM (inactive) with HT-29; 34.8 µM (inactive) in the experiment on SF-295; 16.2 µM (inactive) in the experiment on HL-60. Further, the GI50 is 58.3 µM (inactive) in the experiment with SR; 37.1 µM (inactive) with NCI-H522; 39.9 µM (inactive) with SK-MEL-2; 48.3 µM (inactive) with UACC-257; 95.9 µM (inactive) in the experiment on SN12C; 28.4 µM (inactive) in the experiment with MCF7. The GI50 in the experiment with HCC 2998 is 41.3 µM (inactive); in the experiment with NCI-H23, 27.7 µM (inactive); in the experiment with SK-MEL-5, 32.7 µM (inactive); in the experiment on HCT-15 it was 98.6 µM; with PC-3, 37.1 µM (inactive); with HOP-92, 3.42 µM (inactive). Besides, the GI50 in the experiment on SK-MEL-28 was > 100 µM (inactive).
As for `NNC(=O)CC(=O)Nc1ccc(Cl)cc1`, the GI50 in the experiment with UACC-62, in the experiment on OVCAR-4, in the experiment with Malme-3M, in the experiment on HT-29, in the experiment on SF-295 and in the experiment on HL-60 was > 100 µM (inactive) throughout. Moreover, the GI50 in the experiment with SR, in the experiment on NCI-H522, in the experiment with SK-MEL-2, with UACC-257, with SN12C and with MCF7 was > 100 µM (inactive) in each case. The GI50 is > 100 µM (inactive) in the experiment with SF-268; > 100 µM (inactive) with HCC 2998; > 100 µM (inactive) in the experiment on NCI-H23; > 100 µM (inactive) in the experiment on SK-MEL-5; 34.7 µM in the experiment on HCT-15; > 100 µM (inactive) with PC-3. The GI50 with HOP-92 and in the experiment with SK-MEL-28 was > 100 µM (inactive) throughout.
`O=C(NC(=O)c1ccccc1[N+](=O)[O-])Nc1ccc(Oc2ncc(Cl)cn2)c([N+](=O)[O-])c1`: the GI50 is 0.0834 µM (active) in the experiment on UACC-62; 21.9 µM (inactive) in the experiment on OVCAR-4; 0.061 µM (active) in the experiment on Malme-3M; 0.147 µM (active) with HT-29; 0.157 µM (active) in the experiment with SF-295; 0.0299 µM (active) in the experiment on HL-60. The GI50 was 0.0638 µM (active) with SR; 0.115 µM (active) in the experiment with NCI-H522; 0.127 µM (active) in the experiment on SK-MEL-2; 0.431 µM (active) in the experiment on UACC-257; 0.7 µM (active) in the experiment with SN12C; 0.12 µM (active) with MCF7. Besides, the GI50 with SF-268 was 0.327 µM (active); in the experiment with HCC 2998 it was 0.426 µM (active); in the experiment on NCI-H23, 0.411 µM (active); with SK-MEL-5 it was 0.0773 µM (active); in the experiment on HCT-15, 0.0855 µM; with PC-3, 0.196 µM (active). Besides, the GI50 in the experiment on HOP-92 is 0.27 µM (active).
Consider `CCCCc1ccc(N2C(=O)c3cccnc3S2(=O)=O)cc1`, for which the GI50 in the experiment on UACC-62, with OVCAR-4, in the experiment on Malme-3M, with HT-29, with SF-295 and in the experiment with HL-60 was > 100 µM (inactive) each time. Moreover, the GI50 in the experiment with SR, with NCI-H522, in the experiment with SK-MEL-2, in the experiment with UACC-257, in the experiment on SN12C and in the experiment with MCF7 was > 100 µM (inactive) throughout. The GI50 is > 100 µM (inactive) in the experiment on SF-268; > 100 µM (inactive) in the experiment on HCC 2998; > 100 µM (inactive) in the experiment with NCI-H23; above 100 µM with HCT-15; > 100 µM (inactive) in the experiment on PC-3; > 100 µM (inactive) in the experiment with HOP-92. Besides, the GI50 with SK-MEL-28 was > 100 µM (inactive).
For the compound `Nc1nc(NCCCO)cc(=O)[nH]1`, the GI50 in the experiment on UACC-62, in the experiment with OVCAR-4, in the experiment on Malme-3M, with HT-29, with SF-295 and in the experiment with HL-60 was > 100 µM (inactive) each time. In addition, the GI50 in the experiment with SR, in the experiment on NCI-H522, in the experiment with SK-MEL-2, in the experiment on UACC-257, in the experiment on SN12C and in the experiment with MCF7 was > 100 µM (inactive) throughout. Moreover, the GI50 with SF-268 was > 100 µM (inactive); with HCC 2998, > 100 µM (inactive); with NCI-H23, > 100 µM (inactive); in the experiment with SK-MEL-5 it was > 100 µM (inactive); in the experiment with HCT-15 it was above 100 µM; with PC-3 it was > 100 µM (inactive). For the same compound, the GI50 in the experiment on HOP-92 and in the experiment on SK-MEL-28 was > 100 µM (inactive) throughout.
Consider `COc1ccc(Br)c(/C=N\c2cccc3cc(OC)c(OC)cc23)c1`, for which the GI50 was 10.3 µM (inactive) with UACC-62; 40.6 µM (inactive) in the experiment with OVCAR-4; 34 µM (inactive) in the experiment with Malme-3M; 20 µM (inactive) in the experiment with HT-29; 12.8 µM (inactive) in the experiment with SF-295; 0.865 µM (active) with HL-60. Besides, the GI50 with SR is 2.42 µM (inactive); in the experiment on NCI-H522, > 61.1 µM (inactive); in the experiment on SK-MEL-2 it was 42.3 µM (inactive); in the experiment with UACC-257 it was 69.8 µM (inactive); in the experiment on SN12C, 12.8 µM (inactive); with MCF7 it was 2.33 µM (inactive). Besides, the GI50 is 7 µM (inactive) with SF-268; 28.4 µM (inactive) in the experiment on HCC 2998; 32.8 µM (inactive) with NCI-H23; 17.5 µM (inactive) in the experiment with SK-MEL-5; 2.47 µM in the experiment with HCT-15; 11.1 µM (inactive) in the experiment on PC-3. Further, the figures for the GI50 in the experiment with HOP-92 and in the experiment on SK-MEL-28 were 20.2 µM (inactive) and 13.3 µM (inactive), respectively.
With `O=[N+]([O-])/C=C\c1c[nH]c2ccc(OCc3ccccc3)cc12`, the GI50 with UACC-62 is 2.9 µM (inactive); in the experiment on Malme-3M it was 11 µM (inactive); with SF-295, 10.6 µM (inactive); with HL-60 it was 2.62 µM (inactive); with SR it was 2.03 µM (inactive); in the experiment on NCI-H522, 10.2 µM (inactive). Also, the GI50 in the experiment on SK-MEL-2 is 11.5 µM (inactive); in the experiment on UACC-257, 1.64 µM (inactive); in the experiment on SN12C it was 2.24 µM (inactive); in the experiment with MCF7, 6.49 µM (inactive); in the experiment with SF-268, 4.37 µM (inactive); in the experiment with HCC 2998, 1.67 µM (inactive). Further, the GI50 with NCI-H23 was 3.4 µM (inactive); in the experiment on SK-MEL-5, 5.06 µM (inactive); in the experiment with PC-3 it was 7.33 µM (inactive); in the experiment on HOP-92, 3.21 µM (inactive); in the experiment with SK-MEL-28, 3.03 µM (inactive).
In the case of `C=C1C(=O)C23CC1CCC2C12CO[C@@]3(O)[C@@H](O)C1C(C)(C)C=CC2=O` (stereo partly drawn), the GI50 was 0.989 µM (active) in the experiment on UACC-62; 0.755 µM (active) with Malme-3M; 0.234 µM (active) in the experiment with HT-29; 1.48 µM (inactive) in the experiment with SF-295; 0.143 µM (active) in the experiment on HL-60; 0.186 µM (active) in the experiment on SR. Further, the GI50 in the experiment on NCI-H522 is 1.24 µM (inactive); with SK-MEL-2 it was 0.925 µM (active); with UACC-257, 0.684 µM (active); in the experiment with SN12C, 1.15 µM (inactive); in the experiment on MCF7 it was 2.44 µM (inactive); with SF-268, 1.65 µM (inactive). The GI50 with HCC 2998 was 1.15 µM (inactive); with NCI-H23 it was 0.752 µM (active); in the experiment on SK-MEL-5, 6.65 µM (inactive); in the experiment on HCT-15 it was 0.838 µM; in the experiment with PC-3, 2.74 µM (inactive); in the experiment on HOP-92 it was 0.785 µM (active). Besides, the GI50 in the experiment with SK-MEL-28 was 0.738 µM (active).
For `CC(/C=C/C(=O)NO)=C\C(C)C(=O)c1ccc(N(C)C)cc1` (stereo not drawn), the GI50 is 0.0512 µM (active) in the experiment with UACC-62; 0.0409 µM (active) in the experiment on OVCAR-4; < 0.01 µM (active) with Malme-3M; < 0.01 µM (active) in the experiment with HT-29; 0.0951 µM (active) with SF-295; 0.207 µM (active) in the experiment with HL-60. For the same compound, the GI50 with SR was < 0.0112 µM (active); in the experiment with NCI-H522 it was < 0.01 µM (active); in the experiment on SK-MEL-2, 0.217 µM (active); in the experiment on UACC-257, 0.0614 µM (active); in the experiment with SN12C it was 0.0605 µM (active); in the experiment with MCF7, < 0.01 µM (active). Further, the GI50 in the experiment with SF-268 was 0.0309 µM (active); with HCC 2998, < 0.01 µM (active); in the experiment with NCI-H23, 0.0331 µM (active); with SK-MEL-5, 0.0313 µM (active); in the experiment on HCT-15 it was 0.0313 µM; in the experiment with PC-3 it was 0.0156 µM (active). Besides, the figures for the GI50 with HOP-92 and with SK-MEL-28 were 0.0652 µM (active) and 0.479 µM (active), respectively.

Values taken from ChEMBL document CHEMBL1201862, “PubChem BioAssay data set” (2004).
